We go through two compounds from patent publication US20230139328A1, “DOSAGE FORMS FOR IMPROVING ORGAN TRANSPLANTATION, GRAFT VERSUS HOST DISEASE AND STEM CELLS TRANSPLANTS” (Aphios Corporation, priority 2020, published 2023).

Entries after “also recorded” stand apart in the source; their conditions may differ.

Common to all, as to type: cell-based, human
In series [1] the test system is neutrophil migration across HUVECs. Nature of the series: Time course of LTB4 induced neutrophil migration across HUVECs. The settings on record: single 1 h 100 nM pretreatment, washed, tested at 0, 24, 48 h. As to the method: Time Course Assays: At confluency, HUVECs were treated for 1 h at 37° C. with Bryostatin-1 (10 nM, 100 nM) in EGM or EGM alone. Inserts were washed three times with HBSS (to reduce drug effects on the neutrophils) and migration assays were ran at t=0, 24, or 48 h. After time elapsed, HUVECs were placed in a new plate containing either 500 μL 100 nM LTB4 or HBSS alone for control. 500 μL HBSS was then added to the top well and spiked with 500,000 neutrophils. Neutrophils were allowed to migrate for 3 h at 37° C. Migration was stopped by removing the inserts and migration was measured using the MPO assay.
Myeloperoxidase Assay: Neutrophil migration was measured using myeloperoxidase (MPO) analysis. Cell culture inserts were first removed, and plates were spun at 1,500 RPM for 5 min. The supernatant was removed, and MPO activity was measured using TMB/peroxide as chromogen. The reaction was stopped with sulfuric acid and absorbance was read at 450 nm using a microplate reader. All experiments were performed n=6. Data was expressed as “% neutrophil migration”, which allowed cumulative statistical analysis to be done and account for unpreventable batch-to-batch variations.

Series [2] has as its system HUVEC. Nature of the series: Alamar blue endothelial viability assay, HUVEC. The settings on record: for HUVEC viability at 48 h: 48 h after a single 1 h 100 nM treatment; for HUVEC viability at 1 and 24 h: single 1 h 100 nM treatment, 1, 24 h. As to the method:
Viability Assay. The Alamar blue assay was used to determine endothelial viability after pharmacological intervention. Alamar blue contains a REDOX indicator that results in a color change upon chemical reduction by cellular metabolic activity. Endothelial cells were treated with Bryostatin-1 (100 nM) for 1 h and washed three times with HBSS. Alamar blue (10%) in media was added for 2.5 h at T=0, 24, or 48 hours after drug treatment and the ratio of absorbances (570-600 nm) was measured to determine metabolic activity.
(Resazurin is reduced to fluorescent resorufin, in cell work by metabolically active cells.)

For series [3], the system named is neutrophil migration across confluent HMEC monolayers. Nature of the series: TNF-α induced neutrophil migration across HMEC monolayers. The settings on record: HMECs; 24 h TNF-α 10 or 20 ng/ml; 100 nM, 1 h pretreatment. As to the method: FIG. 4 graphically depicts the effect of PMA on TNF-α induced neutrophil migration.
Turning now to FIG. 5, FIG. 5 graphically depicts the effect of Bryostatin-1 on TNF-α induced neutrophil migration.
Migration Assays: At confluency HMECs were treated for 1 h at 37° C. with Bryostatin-1 (10 nM, 100 nM) in MCDB-131 media or MCDB-131 media alone. Inserts were washed three times with Hank's Balanced Salt Solution (HBSS) (to eliminate drug effects on the neutrophils) and placed in a new plate containing either 500 μL 100 nM LTB4, or HBSS alone for control. 500 μL HBSS was then added to the top well and spiked with 500,000 neutrophils. For TNF-α experiments, HMECs were left in 20 ng/ml TNF-α in MCDB-131 for 24 h TNF-α was removed and HMECs washed three times. […] Migration was stopped by removing the inserts and migration was measured using the myeloperoxidase (MPO) assay.
Myeloperoxidase Assay: Neutrophil migration was measured using myeloperoxidase (MPO) analysis. […] The supernatant was removed, and MPO activity was measured using TMB/peroxide as chromogen. The reaction was stopped with sulfuric acid and absorbance was read at 450 nm using a microplate reader. […] Data was expressed as “% neutrophil migration”, which allowed cumulative statistical analysis to be done and account for unpreventable batch-to-batch variations.

For series [4], the system named is neutrophil adhesion to the endothelial monolayer. Nature of the series: LTB4 induced neutrophil adhesion to the endothelial monolayer. The settings on record: data not shown. As to the method: Turning now to FIG. 1, FIG. 1 graphically depicts neutrophil adhesion to and migration through human microvascular endothelial cell monolayers (HMECs) in a two-compartment system upon administration of an LTB4 gradient in the lower chamber over time. HMECs were plated on porous 8 μm (micron) transwell two-chamber inserts and allowed to reach confluency for migration assays. For the adhesion assay, HMECs were plated on 48-well plates. 100 nM LTB4 and 500,000 neutrophils were added to the upper compartment to initiate adhesion, while 500,000 neutrophils were added to the upper compartment and LTB4 to the lower compartment to initiate migration. Both neutrophil adhesion and migration were measured over 3 h and expressed as % change in adhesion and the fraction of migrated cells in chemoattractant stimulated experiments vs. controls which had no chemoattractant added. […]
Confluent HMEC monolayers were plated on 48-well plates for adhesion studies, transwells for migration studies, and pretreated with a variety of pharmacological inhibitors and activators for 1 hour. […] For adhesion assays, LTB4 was added along with 500,000 neutrophils and allowed to adhere for 1 h (time of max, adhesion as determined in FIG. 1). […] The data are shown as % change in migration and adhesion as assessed by MPO assay. All values are expressed as means+SE. […]

Regarding `CCC/C=C/C=C/C(=O)O[C@H]1/C(=C/C(=O)OC)C[C@H]2C[C@H]([C@@H](C)O)OC(=O)C[C@H](O)C[C@@H]3C[C@H](OC(C)=O)C(C)(C)[C@](O)(C[C@@H]4C/C(=C/C(=O)OC)C[C@H](/C=C/C(C)(C)[C@]1(O)O2)O4)O3` [Bryostatin-1], in series [1], the “time after pretreatment for which reduction of LTB4 induced migration is maintained, HUVECs” value turned out to be 48 h. Besides, in series [2], the “HUVEC viability at 48 h” value is “no effect”; the “HUVEC viability at 1 and 24 h” value is “no effect”. In series [3], the “effect on TNF-α induced neutrophil TEM (Type II migration)” value is given as “attenuated Type II migration; also recorded: totally attenuated”. In addition, the “effect on LTB4 induced adhesion to the endothelial monolayer” value in series [4] is “Neither PMA, nor Bryostatin-1 reduced LTB4 induced adhesion”.

With `CCCCCCCCCCCCCC(=O)O[C@@H]1[C@@H](C)[C@@]2(O)[C@@H](C=C(CO)C[C@]3(O)C(=O)C(C)=C[C@@H]23)[C@@H]2C(C)(C)[C@]12OC(C)=O` [PMA, phorbol myristate acetate], in series [1], the “time after pretreatment for which reduction of LTB4 induced migration is maintained, HUVECs” value is “up to 48 h”. In series [2], the “HUVEC viability at 48 h” value was “slight but significant reduction in viability”; the “HUVEC viability at 1 and 24 h” value is reported as “no effect”. Moreover, the “effect on TNF-α induced neutrophil TEM (Type II migration)” value in series [3] is “attenuated Type II migration; also recorded: totally attenuated”. For the same compound, the “effect on LTB4 induced adhesion to the endothelial monolayer” value in series [4] is “Neither PMA, nor Bryostatin-1 reduced LTB4 induced adhesion”.
